≈ marks a conversion by molar mass, not a printed value.

One series has as its system Klebsiella pneumoniae. Briefly: Antibacterial activity against Klebsiella pneumoniae ATCC BAA-1705 incubated for 16 to 18 hrs by broth microdilution assay. It counts as functional.
The test system of the next series is Escherichia coli. Briefly: Antibacterial activity against Escherichia coli ATCC 25922 incubated for 16 to 18 hrs by broth microdilution assay. It counts as functional.
The test system of the next series is Acinetobacter baumannii. Nature of the series: Antibacterial activity against Acinetobacter baumannii BAA1605 incubated for 16 to 18 hrs by broth microdilution assay. The series is classed as functional.
In series [1] the test system is Mycobacterium tuberculosis. Briefly: Antitubercular activity against Mycobacterium tuberculosis H37Rv after 7 days by resazurin dye based assay. The series is classed as functional. Conditions: 168 h.
A further series relates to Staphylococcus aureus. Nature of the series: Antibacterial activity against Staphylococcus aureus ATCC 29213 incubated for 16 to 18 hrs by broth microdilution assay. It counts as functional.
The test system of the next series is Pseudomonas aeruginosa. Nature of the series: Antibacterial activity against Pseudomonas aeruginosa ATCC 27853 incubated for 16 to 18 hrs by broth microdilution assay. The series is classed as functional.
Series [2] can be described thus: Cytotoxicity against African green monkey Vero cells assessed as reduction in cell viability after 72 hrs by MTT assay. The series is classed as cell-based. To be noted: chlorocebus sabaeus.
Series [3] is described as follows: Selectivity index, ratio of CC50 for African green monkey Vero cells to MIC for Mycobacterium tuberculosis H37Rv. It counts as toxicity. To be noted: read-out: Selectivity Index.

In the case of `N#Cc1ccc(/C=C/c2nc3ccccc3c(=O)n2Cc2ccc(F)cc2)cc1`, the MIC (with Klebsiella pneumoniae; against Escherichia coli; against Acinetobacter baumannii; in series [1]; in the series with Staphylococcus aureus; with Pseudomonas aeruginosa) was over 64 µg/mL throughout.

`Cc1nc2ccc(OCc3cn(-c4cccc(Cl)c4)nn3)cc2c(=O)n1Cc1ccccc1`: the MIC (against Klebsiella pneumoniae; in the series on Escherichia coli; in the series on Acinetobacter baumannii; in series [1]; with Staphylococcus aureus; against Pseudomonas aeruginosa) was over 64 µg/mL in each case.

On to `Cc1nc2cc(-n3cc(-c4ccc(Br)cc4)nn3)ccc2c(=O)n1-c1ccccc1`, for which the MIC in the series with Klebsiella pneumoniae was over 64 µg/mL; against Escherichia coli, over 64 µg/mL; against Acinetobacter baumannii, over 64 µg/mL; in series [1], 64 µg/mL (≈ 140 µM); against Staphylococcus aureus it was 64 µg/mL (≈ 140 µM); with Pseudomonas aeruginosa, over 64 µg/mL.

Take `Cc1nc2ccc(OCc3cn(-c4ccc(Cl)cc4)nn3)cc2c(=O)n1Cc1ccccc1`: the MIC (against Klebsiella pneumoniae; against Escherichia coli; against Acinetobacter baumannii; in series [1]; in the series on Staphylococcus aureus; against Pseudomonas aeruginosa) was over 64 µg/mL in each case.

On to `Cc1nc2cc(-c3ccccc3)ccc2c(=O)n1-c1cccc(Cl)c1`, for which the MIC in the series with Klebsiella pneumoniae was over 64 µg/mL; against Escherichia coli, over 64 µg/mL; in the series on Acinetobacter baumannii, over 64 µg/mL; in series [1] it was 16 µg/mL (≈ 46.1 µM); against Staphylococcus aureus, over 64 µg/mL; against Pseudomonas aeruginosa, over 64 µg/mL. In addition, the CC50 at 72 h in series [2] came to 12.5 µg/mL (≈ 36 µM). In addition, the selectivity ratio in series [3] was 0.78.

Regarding `COc1ccc(-c2cn(-c3ccc4c(=O)n(-c5ccccc5)c(/C=C/c5ccc(C#N)cc5)nc4c3)nn2)cc1`, the MIC (in the series with Klebsiella pneumoniae; with Escherichia coli; against Acinetobacter baumannii; in series [1]; in the series with Staphylococcus aureus; in the series on Pseudomonas aeruginosa) was over 64 µg/mL throughout.

As for `N#Cc1ccc(/C=C/c2nc3ccccc3c(=O)n2Nc2ccc(C(F)(F)F)cc2)cc1`, the MIC (in the series with Klebsiella pneumoniae; in the series on Escherichia coli; against Acinetobacter baumannii; in series [1]; against Staphylococcus aureus; against Pseudomonas aeruginosa) was over 64 µg/mL throughout.

Regarding `C#CCOc1ccc2nc(/C=C/c3ccc(C#N)cc3)n(Cc3ccccc3)c(=O)c2c1`, the MIC (against Klebsiella pneumoniae; with Escherichia coli; with Acinetobacter baumannii; in series [1]; against Staphylococcus aureus; against Pseudomonas aeruginosa) was over 64 µg/mL each time.

In the case of `N#Cc1ccc(/C=C/c2nc3ncccc3c(=O)n2-c2ccc(C#N)cc2)cc1`, the MIC with Klebsiella pneumoniae was over 64 µg/mL; in the series with Escherichia coli it was over 64 µg/mL; with Acinetobacter baumannii it was over 64 µg/mL; in series [1], over 64 µg/mL; in the series with Staphylococcus aureus, 64 µg/mL (≈ 170 µM); in the series on Pseudomonas aeruginosa, over 64 µg/mL.

For the molecule `C#CCNc1ccc2c(=O)n(-c3ccccc3)c(/C=C/c3ccc(C#N)cc3)nc2c1`, the MIC (in the series with Klebsiella pneumoniae; in the series on Escherichia coli; in the series on Acinetobacter baumannii; in series [1]; with Staphylococcus aureus; in the series on Pseudomonas aeruginosa) was over 64 µg/mL in each case.

Take `C#CCOc1ccc2nc(/C=C/c3ccc(C#N)cc3)n(CC(=O)OC)c(=O)c2c1`: the MIC (against Klebsiella pneumoniae; in the series with Escherichia coli; against Acinetobacter baumannii; in series [1]; in the series with Staphylococcus aureus; against Pseudomonas aeruginosa) was over 64 µg/mL throughout.

`N#Cc1ccc(/C=C/c2nc3ccccc3c(=O)n2-c2ccc(O)cc2C(=O)O)cc1`: the MIC (in the series with Klebsiella pneumoniae; against Escherichia coli; against Acinetobacter baumannii; in series [1]; with Staphylococcus aureus; against Pseudomonas aeruginosa) was over 64 µg/mL in each case.

For the molecule `Cc1nc2ccc(-c3ccccc3)cc2c(=O)n1-c1ccccc1`, the MIC (in the series on Klebsiella pneumoniae; with Escherichia coli; in the series on Acinetobacter baumannii; in series [1]; with Staphylococcus aureus; in the series with Pseudomonas aeruginosa) was over 64 µg/mL in each case.

As to `N#Cc1ccc(/C=C/c2nc3cc(-n4cc(-c5ccccc5)nn4)ccc3c(=O)n2-c2ccccc2)cc1`, the MIC (against Klebsiella pneumoniae; with Escherichia coli; in the series on Acinetobacter baumannii; in series [1]; against Staphylococcus aureus; against Pseudomonas aeruginosa) was over 64 µg/mL throughout.

Turning to `Cc1nc2cc(NCc3cn(-c4ccc(F)c(Cl)c4)nn3)ccc2c(=O)n1-c1ccccc1`, the MIC (in the series with Klebsiella pneumoniae; in the series on Escherichia coli; against Acinetobacter baumannii; in series [1]; against Staphylococcus aureus; in the series on Pseudomonas aeruginosa) was over 64 µg/mL throughout.

For the molecule `N#Cc1ccc(/C=C/c2nc3ncccc3c(=O)n2-c2cccc(O)c2)cc1`, the MIC (with Klebsiella pneumoniae; in the series with Escherichia coli; with Acinetobacter baumannii; in series [1]; against Staphylococcus aureus; with Pseudomonas aeruginosa) was over 64 µg/mL throughout.

With `N#Cc1ccc(/C=C/c2nc3ncccc3c(=O)n2-c2cccc(C#N)c2)cc1`, the MIC (in the series on Klebsiella pneumoniae; against Escherichia coli; with Acinetobacter baumannii; in series [1]; against Staphylococcus aureus; with Pseudomonas aeruginosa) was over 64 µg/mL throughout.

Regarding `N#Cc1ccc(/C=C/c2nc3ccc(OCc4cn(-c5ccc(F)c(Cl)c5)nn4)cc3c(=O)n2Cc2ccccc2)cc1`, the MIC (with Klebsiella pneumoniae; in the series with Escherichia coli; with Acinetobacter baumannii; in series [1]; against Staphylococcus aureus; with Pseudomonas aeruginosa) was over 64 µg/mL in each case.

For the molecule `CCC(C)(C)c1ccc(OCc2cn(-c3ccc4c(=O)n(-c5cccc(Cl)c5)c(C)nc4c3)nn2)cc1`, the MIC (in the series with Klebsiella pneumoniae; with Escherichia coli; in the series with Acinetobacter baumannii; in series [1]; in the series with Staphylococcus aureus; in the series on Pseudomonas aeruginosa) was over 64 µg/mL throughout.

`C#Cc1cccc(-n2c(/C=C/c3ccc(C#N)cc3)nc3ncccc3c2=O)c1`: the MIC (against Klebsiella pneumoniae; in the series with Escherichia coli; against Acinetobacter baumannii; in series [1]; in the series on Staphylococcus aureus; against Pseudomonas aeruginosa) was over 64 µg/mL each time.

On to `Cc1cc(C)cc(OCc2cn(-c3ccc4c(=O)n(-c5cccc(Cl)c5)c(C)nc4c3)nn2)c1`, for which the MIC (with Klebsiella pneumoniae; against Escherichia coli; against Acinetobacter baumannii; in series [1]; with Staphylococcus aureus; against Pseudomonas aeruginosa) was over 64 µg/mL in each case.

For `COc1cc(-n2c(/C=C/c3ccc(C#N)cc3)nc3ncccc3c2=O)cc(OC)c1OC`, the MIC in the series on Klebsiella pneumoniae was over 64 µg/mL; with Escherichia coli it was over 64 µg/mL; with Acinetobacter baumannii, over 64 µg/mL; in series [1] it was 64 µg/mL (≈ 145 µM); against Staphylococcus aureus, 64 µg/mL (≈ 145 µM); with Pseudomonas aeruginosa, over 64 µg/mL.

With `Cc1ccc(-c2cn(-c3ccc4c(=O)n(-c5ccccc5)c(C)nc4c3)nn2)cc1`, the MIC (against Klebsiella pneumoniae; against Escherichia coli; against Acinetobacter baumannii; in series [1]; in the series on Staphylococcus aureus; against Pseudomonas aeruginosa) was over 64 µg/mL each time.

`Cc1nc2ccc(-c3ccc(F)cc3)cc2c(=O)n1-c1cccc(Cl)c1`: the MIC (against Klebsiella pneumoniae; in the series on Escherichia coli; against Acinetobacter baumannii; in series [1]; with Staphylococcus aureus; in the series on Pseudomonas aeruginosa) was over 64 µg/mL in each case.

Regarding `COc1cc(-n2cc(COc3ccc4nc(C)n(-c5ccccc5)c(=O)c4c3)nn2)cc(OC)c1OC`, the MIC (in the series on Klebsiella pneumoniae; against Escherichia coli; against Acinetobacter baumannii; in series [1]; with Staphylococcus aureus; in the series with Pseudomonas aeruginosa) was over 64 µg/mL throughout.

Turning to `N#Cc1ccc(/C=C/c2nc3ccccc3c(=O)n2CCc2c[nH]c3ccccc23)cc1`, the MIC (against Klebsiella pneumoniae; against Escherichia coli; against Acinetobacter baumannii; in series [1]; in the series on Staphylococcus aureus; with Pseudomonas aeruginosa) was over 64 µg/mL in each case.

Consider `N#Cc1ccc(/C=C/c2nc3cc(-c4ccccc4)ccc3c(=O)n2-c2cccc(Cl)c2)cc1`, for which the MIC (against Klebsiella pneumoniae; in the series with Escherichia coli; in the series on Acinetobacter baumannii; in series [1]; in the series on Staphylococcus aureus; in the series with Pseudomonas aeruginosa) was over 64 µg/mL in each case.

Consider `COC(=O)Cn1c(/C=C/c2ccc(C#N)cc2)nc2ccc(OCc3cn(-c4ccc(F)c(Cl)c4)nn3)cc2c1=O`, for which the MIC (with Klebsiella pneumoniae; in the series with Escherichia coli; with Acinetobacter baumannii; in series [1]; with Staphylococcus aureus; in the series on Pseudomonas aeruginosa) was over 64 µg/mL throughout.

As for `CC(C)(C)c1ccc(-n2c(/C=C/c3ccc(C#N)cc3)nc3ccccc3c2=O)cc1`, the MIC (against Klebsiella pneumoniae; with Escherichia coli; in the series on Acinetobacter baumannii; in series [1]; in the series on Staphylococcus aureus; in the series with Pseudomonas aeruginosa) was over 64 µg/mL throughout.

With `Cc1nc2cc(-n3cc(-c4ccccc4)nn3)ccc2c(=O)n1-c1ccccc1`, the MIC (in the series with Klebsiella pneumoniae; against Escherichia coli; against Acinetobacter baumannii; in series [1]; in the series with Staphylococcus aureus; against Pseudomonas aeruginosa) was over 64 µg/mL in each case.

In the case of `Cc1cc(-n2cc(CNc3ccc4c(=O)n(-c5ccccc5)c(C)nc4c3)nn2)ccc1[N+](=O)[O-]`, the MIC (against Klebsiella pneumoniae; in the series on Escherichia coli; with Acinetobacter baumannii; in series [1]; against Staphylococcus aureus; in the series with Pseudomonas aeruginosa) was over 64 µg/mL throughout.

The values above are taken from ChEMBL document CHEMBL4393707, “Synthesis and evaluation of new quinazolin-4(3H)-one derivatives as potent antibacterial agents against multidrug resistant Staphylococcus aureus and Mycobacterium tuberculosis” (Eur J Med Chem, 2019).
